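Method: 48-hour compound exposure of cells in 96-well plates, five concentrations, linear interpolation of endpoints. GI50 is the concentration that inhibits growth by half. Definition used: TGI = concentration required for complete inhibition of growth.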
Legend:
Test in all cases: NCI anticancer screen, dose series, 48 h
[1] = test system: 786-0 renal
[2] = test system: A498 renal
[3] = test system: A549 NSCLC
[4] = test system: ACHN renal
[5] = test system: BT-549 breast
[6] = test system: CAKI-1 renal
[7] = test system: CCRF-CEM leukemia
[8] = test system: COLO 205 colon
[9] = test system: DU-145 prostate
[10] = test system: EKVX NSCLC
[11] = test system: HCC-2998 colon
[12] = test system: HCT-116 colon
[13] = test system: HCT-15 colon
[14] = test system: HL-60(TB) leukemia
[15] = test system: HOP-62 NSCLC
[16] = test system: HOP-92 NSCLC
[17] = test system: HS 578T breast
[18] = test system: HT29 colon
[19] = test system: IGROV1 ovarian
[20] = test system: KM12 colon
[21] = test system: LOX IMVI melanoma
[22] = test system: M14 melanoma
[23] = test system: MALME-3M melanoma
[24] = test system: MCF7 breast
[25] = test system: MDA-MB-231 breast
[26] = test system: MDA-MB-435
[27] = test system: MOLT-4 leukemia
[28] = test system: NCI-H226 lung
[29] = test system: NCI-H23 lung
[30] = test system: NCI-H522 lung
[31] = test system: NCI/ADR-RES ovarian
[32] = test system: OVCAR-3 ovarian
[33] = test system: OVCAR-4 ovarian
[34] = test system: OVCAR-5 ovarian
[35] = test system: OVCAR-8 ovarian
[36] = test system: PC-3 prostate
[37] = test system: RPMI-8226 leukemia
[38] = test system: RXF 393 renal
[39] = test system: SF-268 CNS
[40] = test system: SF-295 CNS
[41] = test system: SF-539 CNS
[42] = test system: SK-MEL-2 melanoma
[43] = test system: SK-MEL-28 melanoma
[44] = test system: SK-MEL-5 melanoma
[45] = test system: SK-OV-3 ovarian
[46] = test system: SN12C renal
[47] = test system: SNB-19 CNS
[48] = test system: SNB-75 CNS
[49] = test system: SR leukemia
[50] = test system: SW-620 colon
[51] = test system: T-47D breast
[52] = test system: TK-10 renal
[53] = test system: U251 CNS
[54] = test system: UACC-257 melanoma
[55] = test system: UACC-62 melanoma
[56] = test system: UO-31 renal
[57] = test system: K-562 leukemia
[58] = test system: NCI-H460 lung

`C=C1C(=O)OC2CC(C)C3(O)CCC(=O)C3(C)CC12` (stereo not drawn) was tested, and the TGI [1] was 59.7 µM, the TGI [2] was 66.2 µM and the TGI [3] was over 100 µM. The TGI [4] was 36.2 µM, the TGI [5] was over 100 µM and the TGI [6] was 44.4 µM. The TGI [7] was over 100 µM, the TGI [8] was over 100 µM and the TGI [9] was over 100 µM. The TGI [10] was over 100 µM, the TGI [11] was 50 µM and the TGI [12] was 99.4 µM. For the same molecule, the TGI [13] was 28.1 µM, the TGI [14] was 39.2 µM and the TGI [15] was over 100 µM. It also gave a TGI [16] of over 100 µM, a TGI [17] of 61.4 µM and a TGI [18] of 43.4 µM. It also gave a TGI [19] of 82.6 µM, a TGI [20] of 42.6 µM and a TGI [21] of over 100 µM. The TGI [22] was 55.6 µM, the TGI [23] was 69.5 µM and the TGI [24] was over 100 µM. For the same molecule, the TGI [25] was over 100 µM, the TGI [26] was over 100 µM and the TGI [27] was 58 µM. It also gave a TGI [28] of over 100 µM, a TGI [29] of over 100 µM and a TGI [30] of 30.3 µM. The TGI [31] was over 100 µM, the TGI [32] was 46.5 µM and the TGI [33] was 40.2 µM. For the same molecule, the TGI [34] was 74.3 µM, the TGI [35] was 70.3 µM and the TGI [36] was over 100 µM. For the same molecule, the TGI [37] was 43.1 µM, the TGI [38] was 79.7 µM and the TGI [39] was 64.5 µM. It also gave a TGI [40] of over 100 µM, a TGI [41] of 32.7 µM and a TGI [42] of 71.5 µM. It also gave a TGI [43] of over 100 µM, a TGI [44] of over 100 µM and a TGI [45] of over 100 µM. The TGI [46] was 48.8 µM, the TGI [47] was 61.4 µM and the TGI [48] was 84.3 µM. It also gave a TGI [49] of 57 µM, a TGI [50] of over 100 µM and a TGI [51] of over 100 µM. The TGI [52] was 99.1 µM, the TGI [53] was over 100 µM and the TGI [54] was over 100 µM. For the same molecule, the TGI [55] was over 100 µM and the TGI [56] was over 100 µM.
`Cc1ccc(-c2n[nH]c(=O)n2/N=C\c2ccc([N+](=O)[O-])cc2)cc1` was tested, and the TGI [1] was over 100 µM, the TGI [2] was over 100 µM and the TGI [3] was over 100 µM. The TGI [4] was over 100 µM, the TGI [5] was over 100 µM and the TGI [6] was over 100 µM. It also gave a TGI [7] of over 100 µM, a TGI [8] of over 100 µM and a TGI [9] of over 100 µM. It also gave a TGI [10] of over 100 µM, a TGI [11] of over 100 µM and a TGI [12] of over 100 µM. The TGI [13] was over 100 µM, the TGI [14] was 97.6 µM and the TGI [15] was over 100 µM. It also gave a TGI [16] of over 100 µM, a TGI [17] of over 100 µM and a TGI [18] of over 100 µM. The TGI [19] was over 100 µM, the TGI [57] was over 94.2 µM and the TGI [20] was over 100 µM. The TGI [21] was over 100 µM, the TGI [22] was over 100 µM and the TGI [23] was over 100 µM. The TGI [24] was over 100 µM, the TGI [25] was over 75.9 µM and the TGI [26] was over 94.2 µM. The TGI [27] was over 100 µM, the TGI [28] was over 100 µM and the TGI [29] was over 100 µM. For the same molecule, the TGI [58] was over 100 µM, the TGI [30] was over 100 µM and the TGI [31] was over 100 µM. For the same molecule, the TGI [32] was over 100 µM, the TGI [33] was over 100 µM and the TGI [34] was over 100 µM. The TGI [35] was over 100 µM, the TGI [36] was over 100 µM and the TGI [37] was over 100 µM. It also gave a TGI [38] of over 100 µM, a TGI [39] of over 100 µM and a TGI [40] of over 100 µM. The TGI [41] was over 100 µM, the TGI [42] was over 100 µM and the TGI [43] was over 100 µM. It also gave a TGI [44] of over 100 µM, a TGI [45] of over 100 µM and a TGI [46] of over 100 µM. It also gave a TGI [47] of over 100 µM, a TGI [48] of over 100 µM and a TGI [49] of over 100 µM. The TGI [50] was over 100 µM, the TGI [51] was over 100 µM and the TGI [52] was over 100 µM. It also gave a TGI [53] of over 100 µM, a TGI [54] of over 100 µM and a TGI [55] of over 100 µM. It also gave a TGI [56] of over 100 µM.
Molecule `N#CC1=C(N)Oc2cc(O)ccc2C1c1cccc2ccccc12` (stereo not drawn) has a GI50 [1] of 13.4 µM, a TGI [1] of 29.8 µM and a GI50 [2] of 5.25 µM. The TGI [2] was 22.7 µM, the GI50 [3] was 7.02 µM and the TGI [3] was over 100 µM. The GI50 [4] was 17.2 µM, the TGI [4] was 35 µM and the GI50 [5] was 7.52 µM. For the same molecule, the TGI [5] was 29.6 µM, the GI50 [6] was 8.55 µM and the TGI [6] was 27 µM. For the same molecule, the GI50 [7] was 7 µM, the TGI [7] was 36.9 µM and the GI50 [8] was 16.5 µM. For the same molecule, the TGI [8] was 38.2 µM, the GI50 [9] was 12.1 µM and the TGI [9] was 29.7 µM. It also gave a GI50 [10] of 17 µM, a TGI [10] of over 100 µM and a GI50 [11] of 3 µM. For the same molecule, the TGI [11] was 13.9 µM, the GI50 [12] was 6.52 µM and the TGI [12] was 25.7 µM. For the same molecule, the GI50 [13] was 8.71 µM, the TGI [13] was 26.9 µM and the GI50 [14] was 3.16 µM. It also gave a TGI [14] of 11.7 µM, a GI50 [15] of 13.5 µM and a TGI [15] of 31.7 µM. For the same molecule, the GI50 [16] was 3.78 µM, the TGI [16] was 23.7 µM and the GI50 [17] was 16.6 µM. It also gave a TGI [17] of 73 µM, a GI50 [18] of 8.89 µM and a TGI [18] of 27 µM. It also gave a GI50 [19] of 13.1 µM, a TGI [19] of 29.4 µM and a GI50 [57] of 3.68 µM. For the same molecule, the TGI [57] was 17 µM, the GI50 [20] was 6.68 µM and the TGI [20] was over 100 µM. It also gave a GI50 [21] of 14.8 µM, a TGI [21] of 35.4 µM and a GI50 [22] of 5.72 µM. It also gave a TGI [22] of 21.6 µM, a GI50 [23] of 25.8 µM and a TGI [23] of over 100 µM. For the same molecule, the GI50 [24] was 8.69 µM, the TGI [24] was 24.5 µM and the GI50 [25] was 11.8 µM. The TGI [25] was 30 µM, the GI50 [26] was 2.51 µM and the TGI [26] was 6.68 µM. For the same molecule, the GI50 [27] was 5.58 µM, the TGI [27] was 31.3 µM and the GI50 [28] was 24.2 µM. It also gave a TGI [28] of 82.3 µM, a GI50 [29] of 10.2 µM and a TGI [29] of 22.6 µM. The GI50 [58] was 12.4 µM, the TGI [58] was 32.5 µM and the GI50 [30] was 6.08 µM. It also gave a TGI [30] of 19.7 µM, a GI50 [31] of 3.98 µM and a TGI [31] of 22.8 µM. For the same molecule, the GI50 [32] was 4.07 µM, the TGI [32] was 16.6 µM and the GI50 [33] was 13.1 µM. For the same molecule, the TGI [33] was 31.5 µM, the GI50 [34] was 14.6 µM and the TGI [34] was 28.8 µM. The GI50 [35] was 23.7 µM, the TGI [35] was 66.1 µM and the GI50 [36] was 5.21 µM. The TGI [36] was 29.2 µM, the GI50 [37] was 10.9 µM and the TGI [37] was 41.7 µM. It also gave a GI50 [39] of 14.5 µM, a TGI [39] of 40.4 µM and a GI50 [40] of 7.28 µM. For the same molecule, the TGI [40] was 25.6 µM, the GI50 [41] was 16.5 µM and the TGI [41] was 36.5 µM. For the same molecule, the GI50 [42] was 11.7 µM, the TGI [42] was 24.3 µM and the GI50 [43] was 12.7 µM. The TGI [43] was 27.9 µM, the GI50 [44] was 4.83 µM and the TGI [44] was 19.4 µM. It also gave a GI50 [45] of 18.1 µM, a TGI [45] of 42.9 µM and a GI50 [46] of 20.4 µM. It also gave a TGI [46] of 58.3 µM, a GI50 [47] of 16.3 µM and a TGI [47] of 37.3 µM. It also gave a GI50 [48] of 14.1 µM, a TGI [48] of 32.9 µM and a GI50 [49] of 3.26 µM. For the same molecule, the TGI [49] was 14.8 µM, the GI50 [50] was 3.95 µM and the TGI [50] was over 100 µM. The GI50 [51] was 17.2 µM, the TGI [51] was 58.7 µM and the GI50 [52] was 15.6 µM. For the same molecule, the TGI [52] was 45.6 µM, the GI50 [53] was 16.6 µM and the TGI [53] was 43 µM. It also gave a GI50 [54] of 14.1 µM, a TGI [54] of 30.1 µM and a GI50 [55] of 12.6 µM. It also gave a TGI [55] of 27.3 µM, a GI50 [56] of 12.3 µM and a TGI [56] of 25.8 µM.

Reference: PubChem BioAssay (NCI)
